Patent publication US11692194B2, “Modulating expression of polypeptides via new gene switch expression systems” (Precigen, Inc., priority 2017, dated 2023)
Entries after “also recorded” stand apart in the source; their conditions may differ.

How the values were obtained:
[1] = test system: RTS-IL-12 in EGFRvIII-CAR T cells; assay: Veledimex dose-response of IL-12, ELISA; assay type: cell-based
Procedure: EGFRvIII-CAR T cells with or without RTS-IL-12 were expanded ex vi by three successive rounds of stimulation with EGFRvIII^+ AaPCs. T cells were then treated with varying doses of veledimex from 0 nM (DMSO control) to 100 nM. At 48 h post veledimex treatment, culture supernatants were harvested analyzed for IL-12 levels by ELISA. EGFRvIII-CAR expression in all groups was confirmed with flow cytometry and was stable with increasing doses of veledimex (data not shown) as expected with CAR expression under control of a constitutive promoter.

[2] = test system: inducible IL-12 constructs (XON-61 or XON-62) in EGFRvIII-CAR-T cells; assay: Veledimex ON-OFF cycling of IL-12 in EGFRvIII-CAR-T cells; assay type: cell-based
Procedure: For each ON-OFF cycle, veledimex was first added (ON) at previously mentioned concentrations (typically between 20-100 nM) to cell cultures for 2-3 days. An aliquot of cells was harvested and analyzed for expression (ON) of various proteins by flow cytometry and/or ELISA at noted time points. Remaining cell culture was then washed and resuspended in complete medium without veledimex (OFF) and cultured for up to 5 days. Aliquots of cells were harvested and analyzed for expression (OFF) at times mentioned by flow cytometry and/or ELISA as noted above. Veledimex ON-OFF cycle(s) can be repeated again with remaining cell culture by repeating the process.
The effect of repeated treatments and withdrawals of veledimex to EGFRvIII-CAR-T cells harboring an inducible IL-12 gene was determined in vitro both in the presence and absence of antigen specific T cell activation by co-culture with AaPCs. In the first cycle (ON-OFF) of ligand treatment, CAR-T cells (10^6/ml) expanded ex vivo by four successive rounds of stimulation with EGFRvIII^+ AaPCs were treated with DMSO or veledimex and cultured in the presence or absence of AaPCs in media containing IL-21 and IL-2. After 48 hours post-treatment, cells were washed thoroughly to remove ligand and cultured in a new culture vessel in media containing IL-21 and IL-2 for 5 days. Culture supernatants harvested between 24-120 hours post-treatment were then analyzed for expression of IL-12 and IFNγ.
In the second cycle (ON-OFF) of ligand treatment, CAR-T cells from cultures treated with DMSO or veledimex in the presence of AaPCs in cycle 1 were collected at 5 days after withdrawal of veledimex (in cycle 1) and subjected to a second cycle of ligand treatment with DMSO or veledimex in the presence or absence of antigen specific T cell activation by co-culture with AaPCs. After 48 hours post-treatment, cells were washed thoroughly to remove ligand and cultured in a new culture vessel in media containing IL-21 plus IL-2 for 5 days. Culture supernatants harvested between 24-120 hours post-treatment were then analyzed for expression of IL-12 and IFNγ.

[3] = test system: RTS-mbIL-15 in CD19 CAR T cells; assay: Western blot of mbIL-15 expression; assay type: cell-based, human; settings: CD19 CAR+RTS-mbIL-15 cells, veledimex 2-3 days after four rounds of stimulation
Procedure: PBMC were nucleofected with plasmids of Sleeping Beauty system to express CD19-specific CAR under constitutive promoter (CD19 CAR alone), or CD19-specific CAR and mbIL-15 both under constitutive promoters (CD19 CAR+constitutive-mbIL-15) or CD19-specific CAR under constitutive promoter and RTS-mbIL-15 (CD19 CAR+RTS-mbIL-15). Nucleofected cells were cultured in presence of AaPC as described in Example 1.
After four rounds of stimulations, cells were cultured in absence (CD19 CAR alone, CD19 CAR+constitutive-mbIL-15 and CD19 CAR+RTS-mbIL-15) or presence (CD19 CAR+RTS-mbIL-15) of veledimex for 2-3 days. Cell lysates were prepared for western blot analysis. Approximately 10 μg lysate/lane of NuPAGE 10% Bis-Tris gel was loaded. Proteins were transferred from gel to a polyvinylidene fluoride (PVDF) membranes using the iBlot® (Life Technologies) semi-dry transfer apparatus. Membrane was blocked using a 5% (w/v) powdered milk solution in a PBS+Tween-20 (PBST; 1×PBS+0.05% Tween-20) solution stained with goat anti-human IL-15 (R&D Systems) primary antibody and rabbit anti-goat IgG HRP (KPL Laboratories) secondary antibody. […]
Image of the western blot were captured on the FluorChem™ E Imager (ProteinSimple, San Jose, Calif.) system using the Digital Darkroom software and AlphaView® software (ProteinSimple). […] In CD19 CAR+constitutive-mbIL-15 positive control, expression of mbIL-15 was detected.

## CCC[C@@H](N(NC(=O)c1cccc(OC)c1CC)C(=O)c1cc(C)cc(C)c1)C(C)(C)C [veledimex, N-[(1R)-1-(1,1-dimethylethyl)butyl]-N′-(2-ethyl-3-methoxybenzoyl)-3,5-dimethylbenzohydrazide]
[1]; 0 nM to 100 nM, 48 h post treatment
  IL-12 production versus veledimex dose: dose dependent
[1]; flow cytometry, data not shown
  EGFRvIII-CAR expression with increasing doses of veledimex: stable
[2]; 48 h post-ligand treatment in cycle 2, with EGFRvIII^+ AaPCs
  IL-12 induction in cycle 2 after veledimex versus DMSO in cycle 1: increased IL-12 induction
[2]; cycle 1, culture supernatants at 48 h post-treatment
  IL-12 expression relative to DMSO: increase in IL-12 expression
[2]; cycle 1, presence vs absence of AaPCs
  levels of IL-12 induction with versus without antigen-specific stimulation: enhanced in the presence of AaPC-mediated antigen-specific stimulation; also recorded: significantly lower in the absence of antigen-specific stimulation
[2]; prolonged culture, repeated addition and withdrawal
  control of IL-12 expression over two cycles of ligand treatment: can be turned ON and OFF repeatedly; also recorded: can regulate IL-12 expression
[2]; withdrawal at 48 h post-treatment, presence and absence of AaPCs
  IL-12 expression after withdrawal of veledimex: reduction of IL-12 expression; also recorded: gradually reduced back to the baseline levels; also recorded: went down to baseline levels
[3]
  mbIL-15 expression by western blot: strong expression of mbIL-15
